US11149023B2, “Substituted triazole derivatives and uses thereof” (Bayer Pharma Aktiengesellschaft, priority 2017, dated 2021)

Assays:
human V1a receptor = human V1a receptor (Homo sapiens (Human), UniProt P37288); assay: Cellular in vitro assay for determining vasopressin receptor activity (V1a, aequorin luminescence); format: cell-based; settings: for IC50: CHO cell line transfected with human V1a receptor, [Arg8]-vasopressin at EC50 concentration, read-out: IC50 hV1a; for ratio IC50 hV2/hV1a: selectivity, IC50 hV2 divided by IC50 hV1a
Experimental: (§1) B-1. Cellular In Vitro Assay for Determining Vasopressin Receptor Activity
(§2) The identification of agonists and antagonists of the V1a and V2 vasopressin receptors from humans, rats and dogs as well as the quantification of the activity of the compounds of the invention is carried out using recombinant cell lines. These cell lines originally derive from a hamster's ovary epithelial cell (Chinese Hamster Ovary, CHO K1, ATCC: American Type Culture Collection, Manassas, Va. 20108, USA). The test cell lines constitutively express the human, rat or dog V1a or V2 receptors. In case of the Gαq-coupled V1a receptors, cells are also stably transfected with a modified form of the calcium-sensitive photoproteins aequorin (human and rat V1a) or obe-lin (dog V1a), which, after reconstitution with the cofactor coelenterazine, emit light when there are increases in free calcium concentrations [Rizzuto R, Simpson A W, Brini M, Pozzan T, Nature 358, 325-327 (1992); Illarionov B A, Bondar V S, Illarionova V A, Vysotski E S, Gene 153 (2), 273-274 (1995)]. The resulting vasopressin receptor cells react to stimulation of the recombinantly expressed Via receptors by intracellular release of calcium ions, which can be quantified by the resulting photoprotein luminescence. The Gs-coupled V2 receptors are stably transfected into cell lines expressing the gene for firefly luciferase under control of a CRE-responsible promoter. Activation of V2 receptors induces the activation of the CRE-responsive promoter via cAMP increase, thereby inducing the expression of firefly luciferase. The light emitted by photoproteins of V1a cell lines as well as the light emitted by firefly luciferase of V2 cell lines corresponds to the activation or inhibition of the respective vasopressin receptor. The bioluminescence of the cell lines is detected using a suitable luminometer [Milligan G, Marshall F, Rees S, Trends in Pharmacological Sciences 17, 235-237 (1996)].
Vasopressin V1a Receptor Cell Lines:
On the day before the assay, the cells are plated out in culture medium (DMEM/F12, 2% FCS, 2 mM glutamine, 10 mM HEPES, 5 μg/ml coelenterazine) in 384-well microtiter plates and kept in a cell incubator (96% humidity, 5% v/v CO2, 37° C.). On the day of the assay, test compounds in various concentrations are placed for 10 minutes in the wells of the microtiter plate before the agonist [Arg^8]-vasopressin at EC50 concentration is added. The resulting light signal is measured immediately in a luminometer.
(§3) Table 1A below lists individual IC50 values for the compounds of the invention (including racemic mixtures as well as separated enantiomers) that were obtained from cell lines transfected with the human Via or V2 receptor: […]

human V2 receptor = human V2 receptor (Homo sapiens (Human), UniProt P30518); assay: Cellular in vitro assay for determining vasopressin receptor activity (V2, CRE-luciferase); format: cell-based; settings: CHO cell line transfected with human V2 receptor; [Arg8]-vasopressin at EC50 concentration; read-out: IC50 hV2
Experimental: as §1, §2
Vasopressin V2 Receptor Cell Lines:
On the day before the assay, the cells are plated out in culture medium (DMEM/F12, 2% FCS, 2 mM glutamine, 10 mM HEPES) in 384-well microtiter plates and kept in a cell incubator (96% humidity, 5% v/v CO2, 37° C.). On the day of the assay, test compounds in various concentrations and the agonist [Arg^8]-vasopressin at EC50 concentration are added together to the wells, and plates are incubated for 3 hours in a cell incubator. Upon addition of the cell lysis reagent Triton™ and the substrate luciferin, luminescence of firefly luciferase is measured in a luminometer.
as §3

Chain of human V2 receptor (P30518 whole entry): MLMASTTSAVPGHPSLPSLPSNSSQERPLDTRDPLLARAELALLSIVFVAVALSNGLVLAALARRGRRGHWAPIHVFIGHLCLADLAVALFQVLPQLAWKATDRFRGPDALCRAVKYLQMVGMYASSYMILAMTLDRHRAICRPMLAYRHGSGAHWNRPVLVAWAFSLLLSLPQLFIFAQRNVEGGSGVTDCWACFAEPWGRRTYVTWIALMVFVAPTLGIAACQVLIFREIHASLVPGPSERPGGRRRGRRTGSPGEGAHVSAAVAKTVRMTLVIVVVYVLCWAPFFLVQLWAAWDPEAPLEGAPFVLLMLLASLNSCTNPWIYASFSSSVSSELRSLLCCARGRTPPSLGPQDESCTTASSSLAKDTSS
Chain of human V1a receptor (P37288 whole entry): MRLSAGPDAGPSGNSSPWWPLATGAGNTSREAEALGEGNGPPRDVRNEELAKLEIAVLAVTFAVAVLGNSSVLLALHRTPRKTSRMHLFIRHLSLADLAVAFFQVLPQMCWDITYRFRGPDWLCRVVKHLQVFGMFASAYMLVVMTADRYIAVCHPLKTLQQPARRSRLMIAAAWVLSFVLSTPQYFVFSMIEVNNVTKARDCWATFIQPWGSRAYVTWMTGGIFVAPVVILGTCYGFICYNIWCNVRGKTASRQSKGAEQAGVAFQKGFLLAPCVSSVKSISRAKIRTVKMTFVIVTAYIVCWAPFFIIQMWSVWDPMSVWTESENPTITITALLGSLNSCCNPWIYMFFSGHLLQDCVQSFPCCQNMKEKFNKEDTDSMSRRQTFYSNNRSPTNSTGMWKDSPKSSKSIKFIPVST

| Compound | IC50 (human V1a receptor) | ratio IC50 hV2/hV1a (human V1a receptor) | IC50 (human V2 receptor) |
| --- | --- | --- | --- |
| O=C(NC(Cn1c(-c2ccc(Cl)cc2)nn(Cc2ncn(-c3ncccc3Cl)n2)c1=O)C(F)(F)F)C1COC1 (racemic) [Example 1, N-{3-[3-(4-Chlorophenyl)-1-{[1-(3-chloropyridin-2-yl)-1H-1,2,4-triazol-3-yl]methyl}-5-oxo-1,5-dihydro-4H-1,2,4-triazol-4-yl]-1,1,1-trifluoropropan-2-yl}oxetane-3-carboxamide] | 0.0049 µM | 50.0 | 0.245 µM |
| CC(=O)NC(Cn1c(-c2ccc(Cl)cc2)nn(Cc2ncn(-c3ncccc3Cl)n2)c1=O)C(F)(F)F (racemic) [Example 4, N-{3-[3-(4-Chlorophenyl)-1-{[1-(3-chloropyridin-2-yl)-1H-1,2,4-triazol-3-yl]methyl}-5-oxo-1,5-dihydro-4H-1,2,4-triazol-4-yl]-1,1,1-trifluoropropan-2-yl}acetamide] | 0.0555 µM | 33.3 | 1.85 µM |
| N#CCC(=O)NC(Cn1c(-c2ccc(Cl)cc2)nn(Cc2ncn(-c3ncccc3Cl)n2)c1=O)C(F)(F)F (racemic) [Example 5, N-{3-[3-(4-Chlorophenyl)-1-{[1-(3-chloropyridin-2-yl)-1H-1,2,4-triazol-3-yl]methyl}-5-oxo-1,5-dihydro-4H-1,2,4-triazol-4-yl]-1,1,1-trifluoropropan-2-yl}-2-cyanoacetamide] | 0.0106 µM | 56.4 | 0.595 µM |
| COCC(=O)NC(Cn1c(-c2ccc(Cl)cc2)nn(Cc2ncn(-c3ncccc3Cl)n2)c1=O)C(F)(F)F (racemic) [Example 6, N-{3-[3-(4-Chlorophenyl)-1-{[1-(3-chloropyridin-2-yl)-1H-1,2,4-triazol-3-yl]methyl}-5-oxo-1,5-dihydro-4H-1,2,4-triazol-4-yl]-1,1,1-trifluoropropan-2-yl}-2-methoxyacetamide] | 0.00565 µM | 111.5 | 0.63 µM |
| O=C(CF)NC(Cn1c(-c2ccc(Cl)cc2)nn(Cc2ncn(-c3ncccc3Cl)n2)c1=O)C(F)(F)F (racemic) [Example 8] | 0.0425 µM | 51.8 | 2.2 µM |
| CC(F)(F)C(=O)NC(Cn1c(-c2ccc(Cl)cc2)nn(Cc2ncn(-c3ncccc3Cl)n2)c1=O)C(F)(F)F (racemic) [Example 9] | 0.01 µM | 66.0 | 0.66 µM |
| O=C(CC(F)(F)F)NC(Cn1c(-c2ccc(Cl)cc2)nn(Cc2ncn(-c3ncccc3Cl)n2)c1=O)C(F)(F)F (racemic) [Example 11, N-{3-[3-(4-Chlorophenyl)-1-{[1-(3-chloropyridin-2-yl)-1H-1,2,4-triazol-3-yl]methyl}-5-oxo-1,5-dihydro-4H-1,2,4-triazol-4-yl]-1,1,1-trifluoropropan-2-yl}-3,3,3-trifluoropropanamide] | 0.0012 µM | 37.9 | 0.0455 µM |
| O=C(CCC(F)(F)F)NC(Cn1c(-c2ccc(Cl)cc2)nn(Cc2ncn(-c3ncccc3Cl)n2)c1=O)C(F)(F)F (racemic) [Example 33, N-{3-[3-(4-Chlorophenyl)-1-{[1-(3-chloropyridin-2-yl)-1H-1,2,4-triazol-3-yl]methyl}-5-oxo-1,5-dihydro-4H-1,2,4-triazol-4-yl]-1,1,1-trifluoropropan-2-yl}-4,4,4-trifluorobutanamide] |  | 26.1 |  |
| O=C(CCC(F)(F)F)NC(Cn1c(-c2ccc(Cl)cc2)nn(Cc2ncn(-c3ncccc3Cl)n2)c1=O)C(F)(F)F (racemic) [Example 34, N-{3-[3-(4-Chlorophenyl)-1-{[1-(3-chloropyridin-2-yl)-1H-1,2,4-triazol-3-yl]methyl}-5-oxo-1,5-dihydro-4H-1,2,4-triazol-4-yl]-1,1,1-trifluoropropan-2-yl}-4,4,4-trifluorobutanamide] |  | 40.9 |  |
| O=C(NC(Cn1c(-c2ccc(Cl)cc2)nn(Cc2ncn(-c3ncccc3Cl)n2)c1=O)C(F)(F)F)C1CS(=O)(=O)C1 (racemic) [Example 39, N-{3-[3-(4-Chlorophenyl)-1-{[1-(3-chloropyridin-2-yl)-1H-1,2,4-triazol-3-yl]methyl}-5-oxo-1,5-dihydro-4H-1,2,4-triazol-4-yl]-1,1,1-trifluoropropan-2-yl}thietane-3-carboxamide 1,1-dioxide] |  | 110.9 |  |
| O=C(NC(Cn1c(-c2ccc(Cl)cc2)nn(Cc2ncn(-c3ncccc3Cl)n2)c1=O)C(F)(F)F)C1CS(=O)(=O)C1 (racemic) [Example 40, N-{3-[3-(4-Chlorophenyl)-1-{[1-(3-chloropyridin-2-yl)-1H-1,2,4-triazol-3-yl]methyl}-5-oxo-1,5-dihydro-4H-1,2,4-triazol-4-yl]-1,1,1-trifluoropropan-2-yl}thietane-3-carboxamide 1,1-dioxide] |  | 26.7 |  |
| CS(=O)(=O)CC(=O)NC(Cn1c(-c2ccc(Cl)cc2)nn(Cc2ncn(-c3ncccc3Cl)n2)c1=O)C(F)(F)F (racemic) [Example 45, N-{3-[3-(4-Chlorophenyl)-1-{[1-(3-chloropyridin-2-yl)-1H-1,2,4-triazol-3-yl]methyl}-5-oxo-1,5-dihydro-4H-1,2,4-triazol-4-yl]-1,1,1-trifluoropropan-2-yl}-2-(methylsulfonyl)acetamide] |  | 9.8 |  |
| CS(=O)(=O)CC(=O)NC(Cn1c(-c2ccc(Cl)cc2)nn(Cc2ncn(-c3ncccc3Cl)n2)c1=O)C(F)(F)F (racemic) [Example 46, N-{3-[3-(4-Chlorophenyl)-1-{[1-(3-chloropyridin-2-yl)-1H-1,2,4-triazol-3-yl]methyl}-5-oxo-1,5-dihydro-4H-1,2,4-triazol-4-yl]-1,1,1-trifluoropropan-2-yl}-2-(methylsulfonyl)acetamide] |  | 42.8 |  |
| O=C(NC(Cn1c(-c2ccc(Cl)cc2)nn(Cc2ncn(-c3ncccc3Cl)n2)c1=O)C(F)(F)F)[C@@H]1C[C@H](F)CN1 (stereo in doubt) [Example 48, N-{3-[3-(4-Chlorophenyl)-1-{[1-(3-chloropyridin-2-yl)-1H-1,2,4-triazol-3-yl]methyl}-5-oxo-1,5-dihydro-4H-1,2,4-triazol-4-yl]-1,1,1-trifluoropropan-2-yl}-4-fluoro-prolinamide] |  | 56.5 |  |
| O=C(NC(Cn1c(-c2ccc(Cl)cc2)nn(Cc2ncn(-c3ncccc3Cl)n2)c1=O)C(F)(F)F)[C@@H]1C[C@@H](F)CN1 (stereo in doubt) [Example 49, N-{3-[3-(4-Chlorophenyl)-1-{[1-(3-chloropyridin-2-yl)-1H-1,2,4-triazol-3-yl]methyl}-5-oxo-1,5-dihydro-4H-1,2,4-triazol-4-yl]-1,1,1-trifluoropropan-2-yl}-4-fluoro-prolinamide] |  | 112.7 |  |
| O=C(NC(Cn1c(-c2ccc(Cl)cc2)nn(Cc2ncn(-c3ncccc3Cl)n2)c1=O)C(F)(F)F)C1(C(F)(F)F)CC1 (stereo not drawn) [Example 42, N-{3-[3-(4-Chlorophenyl)-1-{[1-(3-chloropyridin-2-yl)-1H-1,2,4-triazol-3-yl]methyl}-5-oxo-1,5-dihydro-4H-1,2,4-triazol-4-yl]-1,1,1-trifluoropropan-2-yl}-1-(trifluoromethyl)cyclopropane-carboxamide] |  | 9.0 |  |
